Usually IC50 stands for the concentration that inhibits the measured activity by half.

In one data set the test system is SJSA-1. Kind of data set: 72-h MTT cytotoxicity assay, SJSA-1. It counts as cell-based. As to conditions: Homo sapiens, SJSA-1; 72-h MTT; Table 1; read-out: IC50 Anti-proliferative effect on cell line SJSA-1. The method, boiled down:
(§1)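 Human tumour cells; SJSA-1 = bone sarcoma, wt p53, HDM2 overexpressed. H1299 = large cell lung ca., p53-null, low HDM2. AGS = gastric adenocarcinoma, wt p53. Endpoint: anti-proliferative potency.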

In another data set the test system is H1299. Kind of data set: 72-h MTT cytotoxicity assay, H1299. It counts as cell-based. As to conditions: Homo sapiens, NCI-H1299; 72-h MTT; Table 1; read-out: IC50 Anti-proliferative effect on cell line H 1299. In short, it runs like this: as §1
(Tetrazolium dyes change colour on reduction, which living cells bring about.)

The next data set addresses T1, HDM2 (Homo sapiens, UniProt Q00987).
T1 construct: Recombinant HDM2 (1.5 μg per well) in TBS-BSA buffer
Kind of data set: Fluorescence polarisation competitive HDM2 binding assay. The method, boiled down:
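Recombinant HDM2 (1.5 μg/well) was preincubated 5 min at room temperature with serially diluted compound in 50 mM Tris pH 7.4, 150 mM NaCl, 0.1% BSA, 5% DMSO final. Fluorescein-labelled p53 peptide (0.2 μM) was then added for 45 min. Polarisation was read at 485/520 nm and IC50 derived from dose-response curves.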
A general note: Fluorescence polarisation rises when a labelled molecule tumbles more slowly, as on binding a larger partner.

The next data set deals with p53. Kind of data set: p53 reporter gene assay (U2OS-derived luciferase reporter cell line). In general terms: Reporter assays use an easily measured gene product as a stand-in for the process of interest.
Data set [1] relates to E2F transcription factors. Kind of data set: E2F reporter gene assay (A549-derived luciferase reporter cell line). The data set is classed as cell-based. As to conditions: Homo sapiens; after 3-h treatment with test compounds; read-out: IC50 E2F reporter, Non-synchronised cells. The protocol: A similar system to the p53 reporter assay described above was used, with the exception that it was designed to be responsive to E2F transcription factors rather than p53. An A549-derived cell line stably transfected with an E2F response element and a luciferase reporter gene was created. The genetic expression cassette construct used was from Clontech (Mercury™ Cell Cycle Profiling System). Assays were carried out as described above.
Representative bisarylsulfonamides were tested in the E2F gene reporter assay described in Example 6.

Another data set has as its system AGS. Put plainly: 72-h MTT cytotoxicity assay, AGS. It counts as cell-based. As to conditions: Homo sapiens, 72-h MTT, Table 1, read-out: IC50 Anti-proliferative effect on cell line AGS. In short, it runs like this: as §1
Data set [2] concerns AGS, H1299, MCF7 or SJSA1 cells. Kind of data set: Cell morphology (cell rounding). The data set is classed as cell-based, human. The note with it: five times IC50. The text has this:
(§2) Equal amounts of cell lysate were separated by SDS-PAGE and analysed by immunoblotting using the indicated antibodies. An estimation of the extent of cell rounding is indicated above each lane. The arrow indicates the position of a 85-kDa cleavage product of PARP, indicative of apoptosis. (B) The effect of compound 2 on the levels of the cell cycle proteins in AGS cells (wild-type 53). […] Equal amounts of cell lysate were separated by SDS-PAGE and analysed by immunoblotting using the indicated antibodies. An estimation of the extent of cell rounding is indicated above each lane. (C) The effect of negative control compound (refer Example 10), compound 2, cisplatin, and anisomycin on the levels of key proteins in MCF7 cells. […] Cisplatinum and anisomycin (a transcription inhibitor) treatments were with 50 μM or 37 μM, respectively. Cells were harvested at various time points; afterwards lysates were prepared and separated by SDS-PAGE and analysed by immunoblotting. The proteins detected are indicated. The extent of rounded or floating cells and the percentage viable cells were assessed. […] Equal amounts of cell lysate were separated by SDS-PAGE and analysed by immunoblotting using a range of antibodies. An estimation of the extent of cell rounding is indicated above each lane. […] SJSA1 cells were treated with 5 times [IC50] of compound 2 and collected at the indicated time points. Equal amounts of cell lysate were separated by SDS-PAGE and analysed by immunoblotting using a range of antibodies. An estimation of the extent of cell rounding is indicated above each lane.
Cells were treated with 5 times [IC50] of compound 2 and collected at various time points. The percentage of rounded cells was counted before cells were trypsinised and counted for cell viability using trypan blue.
Cells were lysed and equal amounts were analysed by SDS-polyacrylamide gel electrophoresis (SDS-PAGE) and immunoblotting. […] The reduction in E2F-1 levels correlated with reduction in E2F transcriptional activity as determined by an E2F-dependent luciferase reporter assay (refer Example 6).

The subject of data set [3] is key proteins in the HDM2 pathway. Kind of data set: SDS-PAGE and immunoblotting of key proteins in the HDM2 pathway. The data set is classed as cell-based, human.
Description: as §2, with “The arrow indicates the position of a 85-kDa cleavage product of PARP, indicative of apoptosis.” left out
Many types of cellular stress converge on the p53 pathway and induce its activity. […] The biological effect of bisarylsufonamides on cellular level was studies using representative compounds (mainly compound 2) and number of cell lines with different HDM2 and p53 status. These were overexpressing Hdm2 (SJSA1—osteosarcoma), wild type p53 and normal levels of HDM2 (AGS—gastric adenocarcinoma, MCF7—breast adenocarcinoma), or p53 null, low levels of HDM2 (H1299—large cell lung carcinoma).
Cells were lysed and equal amounts were analysed by SDS-polyacrylamide gel electrophoresis (SDS-PAGE) and immunoblotting.

Another data set has as its system AGS cells. Kind of data set: Caspase activity (casp ACE assay), AGS. The note with it: 24 hours. It counts as cell-based, human. The protocol:
In more detail: (A) Cells were treated with […] [IC50] of compound 2 or cisplatinum and collected at the time points indicated. Cell lysates were prepared, the caspase activity was determined using the casp ACE assay and values were plotted on a graph. (B) Cells were treated with 5 times [IC50] of compound 2 or cisplatinum and collected at the time points indicated. AGS cells were also incubated with compound 2 in the presence of a caspase inhibitor Z-VAD.fmk. Cell lysates were prepared, the caspase activity was determined using the casp ACE assay and values were plotted on a graph.
To characterise the apoptosis-inducing properties of bisarylsulfonamides caspase ⅓ activty was measured. AGS or H1299 cells were treated with a low concentration of compound 2 or cisplatin corresponding to twice the IC50 value (FIG. 6A). Morphological changes were detected in 10-20% of cells by 72 hours corresponding to an induction of caspase activity first detected at 48 hours, increasing by 72 hours. We also treated AGS and H1299 cells with higher concentrations corresponding to five times the IC50 (FIG. 6B). In this experiment we included a […], Z-VAD.fmk to determine the caspase responsible.

The structures appear in SMILES notation. Where two headings read alike, the source gives them in different places. Residues, ends and D or L forms follow the SMILES beside them. *: point of attachment. Cbz = O=C(OCc1ccccc1)*; CH2F = FC*

T1 sequence (Q00987 whole entry): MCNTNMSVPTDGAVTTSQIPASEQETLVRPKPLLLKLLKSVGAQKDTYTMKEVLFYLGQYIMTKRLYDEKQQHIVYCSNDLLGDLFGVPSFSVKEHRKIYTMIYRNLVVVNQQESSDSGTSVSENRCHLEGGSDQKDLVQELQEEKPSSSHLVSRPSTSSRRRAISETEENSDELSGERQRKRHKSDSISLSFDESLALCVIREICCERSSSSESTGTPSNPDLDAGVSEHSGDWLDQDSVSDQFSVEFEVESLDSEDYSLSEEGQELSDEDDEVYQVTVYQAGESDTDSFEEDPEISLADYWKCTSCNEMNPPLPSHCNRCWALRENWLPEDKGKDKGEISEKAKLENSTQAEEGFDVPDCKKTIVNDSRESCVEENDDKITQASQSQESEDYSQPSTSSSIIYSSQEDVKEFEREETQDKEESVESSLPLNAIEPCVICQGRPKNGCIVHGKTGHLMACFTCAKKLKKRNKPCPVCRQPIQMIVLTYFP

For the compound `CC(Cc1c[nH]c2ccccc12)NS(=O)(=O)c1cc([N+](=O)[O-])c(Cl)s1` (centres unmarked) [Compound 49, 5-Chloro-4-nitrothiophene-2-sulfonic acid [2-(1H-indol-3-yl)-1-methylethyl]amide], the concentration for half-maximal inhibition (IC50) turned out to be 2 ± 0.2 µM in the data set on SJSA-1; 1.5 ± 0.4 µM in the data set with H1299; 46.3 ± 4 µM at HDM2 (fluorescence polarisation assay, Table 3, read-out: In vitro competitive HDM2 binding assay IC50); 46.3 ± 4 µM at HDM2 (fluorescence polarisation format, Table 1, read-out: IC50 In vitro competitive HDM2 binding assay); 36.3 ± 2.9 µM in data set [1]; 2.2 ± 2.3 µM in the data set on AGS. The “Fold induction of luciferase activity” value in the data set on p53 (compared to basal luciferase activity, 16-h time point, at concentration of maximal induction) came to 117 fold. For the same compound, in the data set on p53 (p53 reporter, U2OS-derived cell line), the “Concentration (test compound concentration at which the p53 induction was maximal)” value amounted to 5.5 µM. In addition, the cell rounding entry in data set [2] is on record as “even more rapid cell rounding”.
For `O=[N+]([O-])c1csc(S(=O)(=O)Nc2ccc(Cl)cc2)c1` [Compound 69, 4-Nitro-thiophene-2-sulfonic acid (4-chloro-phenyl)-amide], the half-inhibitory concentration (IC50) came out at 28 µM with SJSA-1; 30 µM in the data set on H1299; 151 µM at HDM2 (text of Example 10, refer Table 1, read-out: competitive inhibition IC50); 19 µM in the data set with AGS. Moreover, the “PARP cleavage / PARP levels” value in [3] (five times IC50, 85-kDa cleavage product marker for apoptosis) is “Rapid reduction in PARP levels”. The “changes in protein levels and cell morphology” value in [3] (negative control: MCF7, 13.5 μM, 68/69: MCF7 and H1299 at five times IC50 of 69, 49: AGS, SJSA1, H1299) is “induced changes in both morphology and protein levels”. Besides, the cell rounding result in data set [2] is “No rapid cell rounding”.
As for `COC(=O)C[C@H](NC(=O)[C@H](C)NC(=O)[C@@H](NC(=O)OCc1ccccc1)C(C)C)C(=O)CF` [Z-VAD.fmk, reference compound] (Cbz-Val-Ala-Asp(OMe)-CH2F), the “caspase activity induced by compound 2 in presence of caspase inhibitor” value with AGS cells was “reduced the caspase activity to background levels”.

For the origin of these results see patent publication US20050215548A1 (Cyclacel Limited, priority 2002, published 2005).
